In patent US10308631B2, “Selective anti-cancer compounds” (NATIONAL UNIVERSITY OF SINGAPORE, priority 2015, dated 2019):

Legend:
MCF7 = assay: MTT growth inhibition (GI50); type: cell-based; settings: Homo sapiens, MCF7, breast cancer, 72 h
Procedure: (§1) Having shown that Compound 1 and its derivatives are effective against HeLa cervical cancer cells and human fibroblast BJ cell lines, Compound 1 was then tested against a panel of thirty different human cancer cells lines derived from gastric, colon, liver, breast, lung and cervical tumours and five different human normal cell lines, which were normal fibroblast cell lines (BJ normal, IMR90, WI38) and retinal pigmented epithelium cell lines (ARPE-19, hTert-immortalized RPE-1).
(§2) The cell lines detailed in Table 2, below, were cultured in the media shown and treated with Compound 1 at a range of different concentrations (from 0.1 μM to 10 μM) for 72 h in triplicate and a mean concentration value for Compound 1 to achieve 50% growth inhibition (GI50) in each cell line was determined by use of the MTT assay.
(§3) The MTT assay was performed by adding thiazolyl blue tetrazolium bromide (MTT reagent, Invitrogen) at a concentration of 0.5 mg/mL to each cell culture and the resulting mixture incubated for 4 h at 37° C. The medium was then removed, and the blue dye remaining in each well was dissolved in DMSO by mixing with a microplate mixer. The absorbance of each well at 540 nm and 660 nm was measured using a microplate reader (Benchmark plus, BIO-RAD). The optical density (OD) values were calculated by subtracting the absorbance at 660 nm from the absorbance at 540 nm. Mean OD values from control cells containing only DMSO treated wells were set as 100%. The resulting GI50 values (in μM) are set out in Table 2 below.

MDA-MB-231 = assay: MTT growth inhibition (GI50); type: cell-based; settings: Homo sapiens, MDA-MB-231, breast cancer, 72 h
Procedure: as §1, §2, §3

SNU449 = assay: MTT growth inhibition (GI50); type: cell-based; settings: Homo sapiens, SNU-449, SNU449, liver cancer, 72 h
Procedure: as §1, §2, §3

AGS = assay: MTT growth inhibition (GI50); type: cell-based; settings: Homo sapiens, gastric cancer, 72 h
Procedure: as §1, §2, §3

SNU1750 = assay: MTT growth inhibition (GI50); type: cell-based; settings: Homo sapiens, SNU1750, gastric cancer, 72 h
Procedure: as §1, §2, §3

SGCC-GC38 = assay: MTT growth inhibition (GI50); type: cell-based; settings: Homo sapiens, SGCC-GC38, gastric cancer, 72 h
Procedure: as §1, §2, §3

WI38 = assay: MTT growth inhibition (GI50); type: cell-based; settings: Homo sapiens, WI-38, WI38, normal cell line, 72 h
Procedure: as §1, §2, §3

HGC27 = assay: MTT growth inhibition (GI50); type: cell-based; settings: Homo sapiens, HGC-27, HGC27, gastric cancer, 72 h
Procedure: as §1, §2, §3

SNU216 = assay: MTT growth inhibition (GI50); type: cell-based; settings: Homo sapiens, SNU-216, SNU216, gastric cancer, 72 h
Procedure: as §1, §2, §3

AZ521 = assay: MTT growth inhibition (GI50); type: cell-based; settings: Homo sapiens, AZ-521, AZ521, gastric cancer, 72 h
Procedure: as §1, §2, §3

NCC24 = assay: MTT growth inhibition (GI50); type: cell-based; settings: Homo sapiens, NCC24, gastric cancer, 72 h
Procedure: as §1, §2, §3

HT29 = assay: MTT growth inhibition (GI50); type: cell-based; settings: Homo sapiens, HT-29, HT29, colon cancer, 72 h
Procedure: as §1, §2, §3

HeLa = assay: MTT growth inhibition (GI50); type: cell-based; settings: Homo sapiens, cancer (others), 72 h
Procedure: as §1, §2, §3

MKN45 = assay: MTT growth inhibition (GI50); type: cell-based; settings: Homo sapiens, MKN-45, MKN45, gastric cancer, 72 h
Procedure: as §1, §2, §3

NCC19 = assay: MTT growth inhibition (GI50); type: cell-based; settings: Homo sapiens, NCC19, gastric cancer, 72 h
Procedure: as §1, §2, §3

HCT15 = assay: MTT growth inhibition (GI50); type: cell-based; settings: Homo sapiens, HCT-15, HCT15, colon cancer, 72 h
Procedure: as §1, §2, §3

NUGC3 = assay: MTT growth inhibition (GI50); type: cell-based; settings: Homo sapiens, NUGC-3, NUGC3, gastric cancer, 72 h
Procedure: as §1, §2, §3

SNU620 = assay: MTT growth inhibition (GI50); type: cell-based; settings: Homo sapiens, SNU620, gastric cancer, 72 h
Procedure: as §1, §2, §3

IM95 = assay: MTT growth inhibition (GI50); type: cell-based; settings: Homo sapiens, IM95, gastric cancer, 72 h
Procedure: as §1, §2, §3

SCH = assay: MTT growth inhibition (GI50); type: cell-based; settings: Homo sapiens, gastric cancer, 72 h
Procedure: as §1, §2, §3

IST1 = assay: MTT growth inhibition (GI50); type: cell-based; settings: Homo sapiens, IST1, gastric cancer, 72 h
Procedure: as §1, §2, §3

RPE-1/h-Tert = assay: MTT growth inhibition (GI50); type: cell-based; settings: Homo sapiens, normal cell line, 72 h
Procedure: as §1, §2, §3

BJ Normal = assay: MTT growth inhibition (GI50); type: cell-based; settings: Homo sapiens, normal cell line, 72 h
Procedure: as §1, §2, §3

HCT116 = assay: MTT growth inhibition (GI50); type: cell-based; settings: Homo sapiens, HCT-116, HCT116, colon cancer, 72 h
Procedure: as §1, §2, §3

[1] = tested on: HeLa cells (mitotic spindles, β-tubulin/DAPI); assay: Immunofluorescence analysis of mitotic spindles and chromosomes; type: cell-based, human; settings: 6 h, Compound 1 2.5 μM, CQ 15 or 25 μM
Procedure: HeLa cells, treated with Compound 1 (a131) at 2.5 μM (FIG. 3b), chloroquine (CQ) at 15 μM (FIG. 3c) or 25 μM (FIG. 3d), or DMSO (FIG. 3a) for 6 h, were fixed in methanol and subjected to immunofluorescence analysis using antibodies against β-tubulin to visualize proper formation of mitotic spindles. The condensed mitotic chromosomes were visualized by counterstaining with DAPI. Only Compound 1 (a131)-treated HeLa cells arrested in mitosis with misaligned chromosomes and disorganized spindles (FIG. 3b). The bars in FIGS. 3a-d represent 5 μm in length.
To confirm the inhibitory mitotic progression ability, HeLa cervical cancer cells as cultured above were treated with Compound 1 (2.5 μM, DMSO), CQ (15 or 25 μM, DMSO) or DMSO for 6 h. The treated cells were fixed in methanol and subjected to immunofluorescence analysis using antibodies against β-tubulin (Abcam, Cat#ab52623) to visualize proper formation of mitotic spindles. The condensed mitotic chromosomes were visualized by counterstaining with DAPI.

N#C/C(=C\c1cccc2cnccc12)c1c[nH]c2ccccc12 [Compound 1, (Z)-2-(1H-indol-3-yl)-3-(isoquinolin-5-yl)acrylonitrile]
GI50 (MCF7): 1200 nM | GI50 (MDA-MB-231): 1100 nM | GI50 (SNU449): 2300 nM | GI50 (AGS): 1100 nM | GI50 (SNU1750): 700 nM | GI50 (SGCC-GC38): 1900 nM | GI50 (WI38): 3400 nM | GI50 (HGC27): 1200 nM | GI50 (SNU216): 1900 nM | GI50 (AZ521): 2400 nM | GI50 (NCC24): 1200 nM | GI50 (HT29): 900 nM | GI50 (HeLa): 1400 nM | GI50 (MKN45): 1000 nM | GI50 (NCC19): 4600 nM | GI50 (HCT15): 500 nM | GI50 (NUGC3): 1000 nM | GI50 (SNU620): 1000 nM | GI50 (IM95): 1000 nM | GI50 (SCH): 1700 nM | GI50 (IST1): 2200 nM | GI50 (RPE-1/h-Tert): 5200 nM | GI50 (BJ Normal): 8100 nM | GI50 (HCT116): 1800 nM | mitotic arrest, chromosome alignment and mitotic spindles [1]: arrested in mitosis with massively misaligned chromosomes and disorganized mitotic spindles
